Test results from patent US20240166643A1, “IMIDAZO[1,2-A]PYRIDINE COMPOUNDS AND THEIR USE IN THERAPY” (Imperial College Innovations Limited, priority 2020, published 2024).

Legend:
SU-DHL-10 cells = assay: Cell cytotoxicity in SU-DHL-10 cell line (CellTiter-Glo); format: cell-based; conditions: Homo sapiens, SU-DHL10; CellTiter-Glo, 48 h; read-out: SU-DHL-10 EC50
Description: Assay (c): Cell Cytotoxicity in SU-DHL-10 Cell Line
Cell Culture: SU-DHL-10 (ATCC CRL-2963) were cultured in RPMI-media (ATCC, 30-2001).
Cultures were maintained by the addition of fresh medium and inoculum of 8.0×10^4 to 2.0×10^5 cells/mL. Subculturing was done when the cell density was between 1.0×10^6 and 2.0×10^6 cells/mL.
Cell seeding: 5000 cells/well were plated in 384-white clear bottom plates (Greiner, 781098) for the assay in 20 μl growth media.
Top dose: 1 mM stocks of each compound was prepared in 100% DMSO and thereafter diluted 333.33 fold in growth media to obtain 3 μM (0.3% DMSO) mid stock of each compound, from which 10 μl was added to assay wells (with 20 μl cells) for a final concentration of 1 μM (0.1% DMSO). For subsequent dose-response: 1 mM stock was diluted 3 fold in DMSO before subjecting to above dilution pattern to obtain final 0.1% DMSO concentration.
Treatment: Cells were incubated with the compounds for 48 h at 37° C. in presence of 5% CO2.
Assay Procedure: The assay plate and its contents were equilibrated at room temperature for approximately 30 minutes. CellTiter-Glo® Reagent was added equal to the volume (1;1) of cell culture medium present in each well. The contents were mixed for 5 minutes on an orbital shaker to induce cell lysis. The plate was allowed to incubate at room temperature for 10 minutes to stabilize luminescent signal. The luminescence was recorded with an integration time of 0.25 seconds in EnVision 2104 Multilabel Plate Reader (Perkin Elmer).
Calculation: % Cytotoxicity was calculated considering 100% cell death in wells treated with 0.1% TritonX.

[1] = system: Plasmodium falciparum 3D7; assay: SYBR Green assay, Plasmodium falciparum strain 3D7; format: cell-based; conditions: P. falciparum strain 3D7, 96 h incubation, read-out: Pf EC50 strain 3D7
[2] = target: Plasmodium vivax (Pv) NMT (Plasmodium vivax (strain Salvador I), UniProt A5K1A2); assay: biochemical
Sequence of Plasmodium vivax (Pv) NMT (A5K1A2 1-410): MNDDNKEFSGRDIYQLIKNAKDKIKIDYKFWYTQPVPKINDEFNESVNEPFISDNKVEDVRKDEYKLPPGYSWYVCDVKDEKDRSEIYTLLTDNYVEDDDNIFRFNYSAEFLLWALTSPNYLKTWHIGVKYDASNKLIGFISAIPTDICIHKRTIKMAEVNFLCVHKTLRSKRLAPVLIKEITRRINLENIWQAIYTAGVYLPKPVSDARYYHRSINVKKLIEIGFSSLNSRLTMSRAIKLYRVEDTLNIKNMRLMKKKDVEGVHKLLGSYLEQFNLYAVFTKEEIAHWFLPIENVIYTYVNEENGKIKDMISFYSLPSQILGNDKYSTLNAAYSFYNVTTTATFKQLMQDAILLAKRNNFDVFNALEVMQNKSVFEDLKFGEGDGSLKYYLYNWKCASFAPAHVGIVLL

Human NMT1 (HsNMT1) = Human NMT1 (HsNMT1) (Homo sapiens, UniProt P30419); assay: biochemical
Sequence of Human NMT1 (HsNMT1) (P30419 whole entry, looked up): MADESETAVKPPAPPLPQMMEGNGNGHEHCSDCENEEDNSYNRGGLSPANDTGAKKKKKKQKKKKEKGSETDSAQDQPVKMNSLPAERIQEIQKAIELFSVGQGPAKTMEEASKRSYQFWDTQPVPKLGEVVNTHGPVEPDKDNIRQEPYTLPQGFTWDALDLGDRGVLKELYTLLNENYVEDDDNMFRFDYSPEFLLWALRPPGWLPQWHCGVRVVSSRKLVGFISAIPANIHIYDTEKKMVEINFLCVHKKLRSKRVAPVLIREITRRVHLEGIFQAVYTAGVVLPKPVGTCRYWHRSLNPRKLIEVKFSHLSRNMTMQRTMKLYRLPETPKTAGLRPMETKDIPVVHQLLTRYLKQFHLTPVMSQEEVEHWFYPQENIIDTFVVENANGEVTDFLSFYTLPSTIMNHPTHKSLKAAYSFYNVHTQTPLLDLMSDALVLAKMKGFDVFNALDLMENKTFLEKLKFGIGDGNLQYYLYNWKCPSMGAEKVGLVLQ

in vitro = conditions: male, Sprague-Dawley, rat, pooled cryopreserved rat hepatocytes, pH 7.4
Description: Assay (e): Rat Hepatocyte Half Life
Certain example compound of the present invention were tested for metabolic stability in rat metabolic assays using hepatocytes derived from pooled male Sprague-Dawley rats.
Frozen pooled rat hepatocytes obtained from LifeTechnologies were thawed and purified according to the manufacturer's instructions. The test compound (4 mM) in DMSO was diluted with acetonitrile to provide a 100 μM sub-stock then further diluted with pH 7.4 Krebs-Henseleit buffer (supplemented with CaCl2, NaHCO3, HEPES, fructose and glycine) to provide a 2 μM working solution. 25 μL of working solution was incubated at 37° C., treated with 25 μL of rat hepatocyte suspension (containing 1×10^6 cells/mL) and incubated at 37° C. with 5% CO2 level at 95% relative humidity. Wells were incubated for an appropriate time (0, 15, 30, 45, 60 and 75 min) then quenched with 250 μL of acetonitrile containing reference standards diltiazem, 7-ethoxycoumarin and propranolol). The plates were shaken, sonicated for 5 min then cooled to 4° C. until all sampling was complete. All plates were centrifuged at 4000 rpm for 20 min to pellet the debris. 110 μL supernatant was diluted 110 μL water and quantitated using LC-MS/MS.
A linear regression curve was fitted to a plot of natural logarithm (In) of AUC against time. The T-half (min)=0.693/slope

C[C@@H]1CN(c2ncc(Cl)c(N3CC(C(=O)NC(C)(C)c4cnc5ccccn45)C3)n2)CCN1 [Example 1, 1-{5-chloro-2-[(3R)-3-methylpiperazin-1-y]pyrimidin-4-yl}-N-(2-{imidazo[1,2-a]pyridin-3-yl}propan-2-yl)azetidine-3-carboxamide]
EC50 (SU-DHL-10 cells): 367 nM
EC50 [1]: 6.3 nM
IC50 [2]: 6.6 nM
IC50 (Human NMT1 (HsNMT1)): 3 nM

CN1CCN(c2cc(N3CC(C(=O)NC(C)(C)c4cnc5ccccn45)C3)c(F)cn2)CC1 [Example 4, 1-[5-fluoro-2-(4-methylpiperazin-1-yl)pyridin-4-yl]-N-(2-{imidazo[1,2-a]pyridin-3-yl}propan-2-yl)azetidine-3-carboxamide]
EC50 [1]: 100 nM
half-life at 1 µM (in vitro): > 3 h

CC(C)(NC(=O)C1CN(c2nc(N3CCNCC3)ncc2Cl)C1)c1cnc2ccccn12 [Example 33]
EC50 (SU-DHL-10 cells): 878 nM
EC50 [1]: 18 nM
IC50 [2]: 6.6 nM
IC50 (Human NMT1 (HsNMT1)): 3.5 nM

C[C@@H]1CN(c2ncc(Cl)c(N3CC(C(=O)NC(C)(C)c4cnc5ccccn45)C3)n2)C[C@H](C)N1 [Example 43]
EC50 [1]: 110 nM
half-life at 1 µM (in vitro): > 3 h

CC1CN(c2ncc(Cl)c(N3CC(C(=O)NC(C)(C)c4cnc5ccccn45)C3)n2)C[C@H](C)N1 (stereo partly drawn) [Example 48]
EC50 (SU-DHL-10 cells): 795 nM
EC50 [1]: 65 nM

CC1CNCCN1c1ncc(Cl)c(N2CC(C(=O)N(C)C(C)(C)c3cnc4ccccn34)C2)n1 (stereo not drawn) [Example 50]
EC50 (SU-DHL-10 cells): 35 nM
EC50 [1]: 26 nM

COc1cnc(N2C[C@@H](C)N(C)[C@@H](C)C2)nc1N1CC(C(=O)NC(C)(C)c2cnc3ccccn23)C1 [Example 88, N-(2-{imidazo[1,2-a]pyridin-3-yl}propan-2-yl)-1-{5-methoxy-2-[(3R,5S)-3,4,5-trimethylpiperazin-1-yl]pyrimidin-4-yl}azetidine-3-carboxamide]
EC50 [1]: 76 nM
half-life at 1 µM (in vitro): > 3 h

CCN(C(=O)C1CN(c2nc(N3CCNCC3)ncc2Cl)C1)C(C)(C)c1cnc2ccccn12 [Example 136, 1-(5-chloro-2-(piperazin-1-yl)pyrimidin-4-yl)-N-ethyl-N-(2-(imidazo[1,2-a]pyridin-3-yl)propan-2-yl)azetidine-3-carboxamide]
EC50 (SU-DHL-10 cells): 161 nM
IC50 (Human NMT1 (HsNMT1)): 7 nM

CCC1CN(c2ncc(Cl)c(N3CC(C(=O)NC(C)(C)c4cnc5ccccn45)C3)n2)CCN1 (stereo not drawn) [Example 137, 1-(5-chloro-2-(3-ethylpiperazin-1-yl)pyrimidin-4-yl)-N-(2-(imidazo[1,2-a]pyridin-3-yl)propan-2-yl)azetidine-3-carboxamide]
EC50 (SU-DHL-10 cells): 218 nM
IC50 (Human NMT1 (HsNMT1)): 3 nM

C[C@@H]1CNCCN1c1ncc(Cl)c(N2CC(C(=O)N(C)C(C)(C)c3cnc4ccccn34)C2)n1 [Example 138, (R)-1-(5-chloro-2-(2-methylpiperazin-1-yl)pyrimidin-4-yl)-N-(2-(Imidazo[1,2-a]pyridin-3-yl)propan-2-yl)-N-methylazetidine-3-carboxamide]
EC50 (SU-DHL-10 cells): 742 nM
IC50 (Human NMT1 (HsNMT1)): 15 nM

C[C@@H]1CNCCN1c1ncc(Cl)c(N2CC(C(=O)NC(C)(C)c3cnc4ccccn34)C2)n1 [Example 141, (R)-1-(5-chloro-2-(2-methylpiperazin-1-yl)pyrimidin-4-yl)-N-(2-(Imidazo[1,2-a]pyridin-3-yl)propan-2-yl)azetidine-3-carboxamide]
EC50 (SU-DHL-10 cells): 378 nM
IC50 (Human NMT1 (HsNMT1)): 4 nM

C[C@@H]1CN(C)CCN1c1ncc(Cl)c(N2CC(C(=O)N(C)C(C)(C)c3cnc4ccccn34)C2)n1 [Example 142, (R)-1-(5-chloro-2-(2,4-dimethylpiperazin-1-yl)pyrimidin-4-yl)-N-(2-(imidazo[1,2-a]pyridin-3-yl)propan-2-yl)-N-methylazetidine-3-carboxamide]
EC50 (SU-DHL-10 cells): 489 nM
IC50 (Human NMT1 (HsNMT1)): 178 nM

CC1NCCN(c2ncc(Cl)c(N3CC(C(=O)NC(C)(C)c4cnc5ccccn45)C3)n2)C1C (stereo not drawn) [Example 143, 1-(5-chloro-2-(2,3-dimethylpiperazin-1-yl)pyrimidin-4-yl)-N-(2-(Imidazo[1,2-a]pyridin-3-yl)propan-2-yl)azetidine-3-carboxamide]
EC50 (SU-DHL-10 cells): 5 nM
IC50 (Human NMT1 (HsNMT1)): 3 nM

CC(C)(NC(=O)C1CN(c2nc(N3CC4CCC(C3)N4)ncc2Cl)C1)c1cnc2ccccn12 [Example 144, 1-(2-(3,8-diazabicyclo[3.2.1]octan-3-yl)-5-chloropyrimidin-4-yl)-N-(2-(imidazo[1,2-a]pyridin-3-yl)propan-2-yl)azetidine-3-carboxamide]
EC50 (SU-DHL-10 cells): 243 nM
IC50 (Human NMT1 (HsNMT1)): 5 nM

CCN(C(=O)C1CN(c2nc(N3CCNC[C@@H]3C)ncc2Cl)C1)C(C)(C)c1cnc2ccccn12 [Example 145, (S)-1-(5-chloro-2-(2-methylpiperazin-1-yl)pyrimidin-4-yl)-N-ethyl-N-(2-(imidazo[1,2-a]pyridin-3-yl)propan-2-yl)azetidine-3-carboxamide]
EC50 (SU-DHL-10 cells): 13 nM
IC50 (Human NMT1 (HsNMT1)): 3 nM

CN(C(=O)C1CN(c2nc(N3CCNC4CC43)ncc2Cl)C1)C(C)(C)c1cnc2ccccn12 (stereo not drawn) [Example 146, 1-(2-(2,5-diazabicyclo[4.1.0]heptan-2-yl)-5-chloropyrimidin-4-yl)-N-(2-(imidazo[1,2-a]pyridin-3-yl)propan-2-yl)-N-methylazetidine-3-carboxamide]
EC50 (SU-DHL-10 cells): 597 nM
IC50 (Human NMT1 (HsNMT1)): 61 nM

CC[C@H]1CNCCN1c1ncc(Cl)c(N2CC(C(=O)NC(C)(C)c3cnc4ccccn34)C2)n1 [Example 147, (S)-1-(5-chloro-2-(2-ethylpiperazin-1-yl)pyrimidin-4-yl)-N-(2-(imidazo[1,2-a]pyridin-3-yl)propan-2-yl)azetidine-3-carboxamide]
EC50 (SU-DHL-10 cells): 12 nM
IC50 (Human NMT1 (HsNMT1)): 2 nM

CC[C@H]1CNCCN1c1ncc(Cl)c(N2CC(C(=O)N(C)C(C)(C)c3cnc4ccccn34)C2)n1 [Example 148, (S)-1-(5-chloro-2-(2-ethylpiperazin-1-yl)pyrimidin-4-yl)-N-(2-(Imidazo[1,2-a]pyridin-3-yl)propan-2-yl)-N-methylazetidine-3-carboxamide]
EC50 (SU-DHL-10 cells): 369 nM
IC50 (Human NMT1 (HsNMT1)): 5 nM

C[C@H]1CN(c2ncc(Cl)c(N3CC(C(=O)NC(C)(C)c4cnc5ccccn45)C3)n2)[C@@H](C)CN1 [Example 151, 1-(5-chloro-2-((2S,5S)-2,5-dimethylpiperazin-1-yl)pyrimidin-4-yl)-N-(2-(imidazo[1,2-a]pyridin-3-yl)propan-2-yl)azetidine-3-carboxamide]
EC50 (SU-DHL-10 cells): 15 nM
IC50 (Human NMT1 (HsNMT1)): 2 nM

C[C@H]1CN(c2ncc(Cl)c(N3CC(C(=O)NC(C)(C)c4cnc5ccccn45)C3)n2)[C@@H](C)CN1C [Example 152, 1-(5-chloro-2-((2S,5S)-2,4,5-trimethylpiperazin-1-yl)pyrimidin-4-yl)-N-(2-(imidazo[1,2-a]pyridin-3-yl)propan-2-yl)azetidine-3-carboxamide]
EC50 (SU-DHL-10 cells): 306 nM
IC50 (Human NMT1 (HsNMT1)): 8 nM

C[C@@H]1CN(c2ncc(Cl)c(N3CC(C(=O)NC(C)(C)c4cnc5ccccn45)C3)n2)[C@@H](C)CN1 [Example 153, 1-(5-chloro-2-((2S,5R)-2,5-dimethylpiperazin-1-yl)pyrimidin-4-yl)-N-(2-(imidazo[1,2-a]pyridin-3-yl)propan-2-yl)azetidine-3-carboxamide]
EC50 (SU-DHL-10 cells): 54 nM
IC50 (Human NMT1 (HsNMT1)): 3 nM

C[C@@H]1CN(c2ncc(Cl)c(N3CC(C(=O)NC(C)(C)c4cnc5ccccn45)C3)n2)[C@@H](C)CN1C [Example 154, 1-(5-chloro-2-((2S,5R)-2,4,5-trimethylpiperazin-1-yl)pyrimidin-4-yl)-N-(2-(imidazo[1,2-a]pyridin-3-yl)propan-2-yl)azetidine-3-carboxamide]
EC50 (SU-DHL-10 cells): 453 nM
IC50 (Human NMT1 (HsNMT1)): 10 nM
